Measured values from patent publication US20160122307A1, “PERHYDROQUINOXALINE DERIVATIVES” (DR. AUGUST WOLFF GMBH & CO. KG ARZNEIMITTEL, priority 2013, published 2016).
Like-named read-outs stand apart in the source and are kept apart here.

How the values were obtained:
[1] = target: T1, Human opiate κ receptors (Homo sapiens, UniProt P41145); test: κ opioid receptor functional assay, [35S]GTPγS binding (assay C); assay type: biochemical; conditions: for activation at 1 µM: 0.5 h, read-out: % activation functional assay at 1 μM; for EC50: read-out: GTPγS EC50
T1 sequence (P41145 whole entry): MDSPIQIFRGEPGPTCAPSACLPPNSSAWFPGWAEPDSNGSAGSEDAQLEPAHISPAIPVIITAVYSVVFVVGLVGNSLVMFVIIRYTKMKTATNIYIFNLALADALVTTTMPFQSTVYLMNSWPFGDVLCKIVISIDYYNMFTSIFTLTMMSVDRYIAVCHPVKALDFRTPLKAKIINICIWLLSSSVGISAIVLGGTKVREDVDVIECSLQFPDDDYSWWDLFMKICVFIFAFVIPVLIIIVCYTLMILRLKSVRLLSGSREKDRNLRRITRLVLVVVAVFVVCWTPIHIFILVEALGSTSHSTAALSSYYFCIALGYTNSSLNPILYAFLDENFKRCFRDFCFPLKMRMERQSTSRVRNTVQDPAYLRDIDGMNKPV

[2] = test system: arachidonic acid-induced ear inflammation; assay type: in vivo, mice
[3] = test system: chloroquine-induced scratching; test: Effects on chloroquine-induced scratching (assay L); assay type: in vivo; conditions: intrathecal injection, mice
Description: L. Effects on Chloroquine-Induced Scratching
Compounds are intrathecally injected in a volume of 5 μl, 10 min before the i.d. injection of chloroquine (100 μg/10 μl) in the rostral back. Following the i.d. cheek injection, mice are placed in an arena with a clear glass floor and videotaped from beneath for 30 min. Videotapes are reviewed by blinded investigators, who count the number of hindlimb scratch bouts.

[4] = test system: DSS-induced colitis; test: DSS-induced colitis in mice (assay K); assay type: in vivo, C57BL/6 mice
Description: K. DSS-Induced Colitis in Mice
Colitis is induced by treatment of C57BL/6 mice with 2.5% dextran sulfate (DSS) in the drinking water for 7 days. Mice are treated with the test item. Weight is monitored daily. At day 8 mice are scarified. A haemocult test is performed. The size of the colon is measured. Colitis is determined using a scoring system in H&E stains.

[5] = test system: vasculitis; test: Vasculitis model in mice, LPS/TNF-α (assay I); assay type: in vivo, C57BL/6 mice; conditions: dose dependent
Description: I. Vasculitis Model in Mice
C57BL/6 mice receive an intradermal injection of LPS. On the following day vasculitis is induced by intradermal injection of TNF-α. In addition Evan's blue is injected. 24 hours following the injection of TNF-α mice are scarified. Ear thickness is measured and the degree of vasculitis is assessed by counting petechiae. The content of Evan's blue in the ear tissue is a marker for vascular permeability. Ears are analyzed by histology, FACS and RT-qPCR.

[6] = test system: Imiquimod-induced psoriasis; test: Imiquimod-induced psoriasis in mice (assay J); assay type: in vivo, Balb/c mice; conditions: s.c. or i.v.
Description: J. Imiquimod-Induced Psoriasis in Mice
Psoriasis in Balb/c mice is induced by daily application of topical Imiquimod for 8 days. Animal are treated with the test items (topical or systemically). Scratching was monitored. On day 9 the skin phenotype is characterized. Skin is analyzed histologically. Lymph nodes are analyzed by flow cytometry and RT-qPCR.

[7] = test system: oxazolone delayed type hypersensitivity reaction; test: In vivo model for pruritus associated with the oxazolone model of a delayed type hypersensitivity reaction (assay D); set-up: species or system mice
Description: D. In Vivo Model for Pruritus Associated with the Oxazolone Model of a Delayed Type Hypersensitivity Reaction
Scratching activity in mice is measured after topical application of the test compound.

[8] = test system: UVB-induced inflammatory pain; test: UVB-induced inflammatory pain in rats (assay H); assay type: in vivo, Sprague-Dawley rats; conditions: s.c.
Description: H. UVB-Induced Inflammatory Pain In Rats
Male, Sprague-Dawley rats receive a single exposure of UVB radiation to the left hind paw. Mechanical hyperalgesia is assessed using a digital Randall-Selitto device (dRS). Thermal hyperalgesia is measured using a plantar test apparatus (see e.g. Davies S. L. J. Neurosci. Methods 2005; 148:161-166, Bishop T. Pain 2007; 131:70-82 and Graham I. J. Invest. Dermatol. 2004; 122:183-189).

[9] = test system: acetic acid-induced writhing; test: Acetic acid-induced writhing assay in mice (assay G); assay type: in vivo; conditions: s.c.
Description: G. Acetic Acid-Induced Writhing Assay in Mice
Analgesic activity against visceral or chemical pain is assessed by application of the test compound prior to application of an i.p. injection of acetic acid. The number of writhing responses that occur in response to acetic acid are counted (see e.g. Barber A. Med. Res. Rev. 1992; 12:525-62 and Ramabadran K. Pharm. Res. 1986,3:263-270).

[10] = test system: chronic oxazolone-induced ear inflammation; test: In vivo model of chronic oxazolone-induced ear inflammation (assay E); set-up: species or system mice
Description: E. In Vivo Model of Chronic Oxazolone-Induced Ear Inflammation
Mice are challenged several times with oxazolone following an initial sensitization. Ear thickness is measured daily during the treatment period with topical application of the test compound (see e.g. Ottosen E. R. J. Med. Chem. 2003; 46: 5651-5662). At the end of the study ear weight is determined Ears are characterized histologically and by immunofluorescence. Gene expression was quantified (RT-qPCR).

[11] = target: T1, Human opiate κ receptors; assay type: binding; set-up: expressed in transfected cells; host or cells: HEK-293 cell membranes
[12] = topical, versus vehicle control

Row | Compound | activation at 1 µM [1] | increase in ear thickness [2, 12] | chloroquine-evoked scratching [3] | % activation functional assay at 1 μM [1] | EC50 [1] | % binding at 100 nM [11] | also measured
1 | COC(=O)c1ccc(C(=O)N2CCN(C(=O)Cc3ccc(Cl)c(Cl)c3)C3C(N4CCCC4)CCCC32)cc1 (racemic) [Example 81] | 102% | dose dependently prevented the increase | significantly inhibited | – | – | – | –
2 | COC(=O)N1CCN(C(=O)Cc2ccc(Cl)c(Cl)c2)[C@@H]2[C@@H](N3CCCC3)CCC[C@@H]21 [Example 89, (4aR,5S,8aS)-methyl 4-(2-(3,4-dichlorophenyl)acetyl)-5-(pyrrolidin-1-yl)octahydroquinoxaline-1(2H)-carboxylate] | 107% | – | – | 100% | – | – | weight loss ([4]; compared to vehicle control): decreased weight loss; reduction in colon size induced by DSS ([4]; mouse, in vivo): normalized; ear thickness [5]: reduction; inflammatory infiltrate (histology) [5]: reduced inflammatory infiltrate; number of petechiae [5]: reduced number; scratch numbers [6]: lower; size of the rete ridges ([6]; compared to vehicle control): decreased size; number of scratch events ([7]; mice, topical): significantly reduced; ear thickness ([7]; mice, topical, compared to vehicle treated animals): accelerated decrease; epidermal thickness, inflammatory infiltrate and epidermal oedema (histology) ([7]; semi-quantitative analysis): reduction; thermal hyperalgesia [8]: significant, dose dependent reduction; number of writhing responses [9]: significant, dose dependent reduction; increase in ear thickness ([2]; mouse, in vivo, sc): prevented the increase; scratching activity ([2]; mouse, in vivo, sc): significantly reduced; inflammatory infiltrate (CD117+ mast cells and Gr-1+ neutrophils) ([10]; immunohistochemistry): dose dependent reduction; ear thickness ([10]; mice, topical, compared to vehicle control): dose dependent decreased; epidermal thickness, inflammatory infiltrate and epidermal oedema (histology) ([10]; semi-quantitative analysis): reduction
3 | COC(=O)c1ccc(C(=O)N2CCN(C(=O)Cc3ccc(Cl)c(Cl)c3)[C@@H]3[C@@H](N4CCCC4)CCC[C@@H]32)cc1.Cl [Example 114] | – | dose dependently prevented the increase | significantly inhibited | 93% | 10 to 100 nM | – | –
4 | CS(=O)(=O)N1CCN(C(=O)Cc2ccc(Cl)c(F)c2)C2C(N3CCC(O)C3)CCCC21.Cl (stereo not shown) [Example 122] | – | dose dependently prevented the increase | – | 105% | < 10 nM | – | –
5 | CS(=O)(=O)N1CCN(C(=O)Cc2ccc(F)c(Cl)c2)C2C(N3CCC(O)C3)CCCC21.Cl (stereo not shown) [Example 125] | – | dose dependently prevented the increase | – | 99% | < 10 nM | 80% | –
6 | CNC(=O)C(=O)N1CCN(C(=O)Cc2ccc(Cl)c(Cl)c2)[C@@H]2[C@@H](N3CC[C@H](O)C3)CCC[C@@H]21 [Example 145] | – | dose dependently prevented the increase | – | 103% | 10 to 100 nM | 62% | –
